How the values were obtained:
Type in all cases: biochemical
[1] = target: T1, Armoracia rusticana myrosinase I1, SEQ ID NO: 6 (Armoracia rusticana, UniProt I1TIJ2); assay: Myrosinase activity assay (glucose release from sinigrin hydrolysis), I1
T1 construct: elsewhere used as YebF-I1 fusion
T1 sequence (I1TIJ2 23-510): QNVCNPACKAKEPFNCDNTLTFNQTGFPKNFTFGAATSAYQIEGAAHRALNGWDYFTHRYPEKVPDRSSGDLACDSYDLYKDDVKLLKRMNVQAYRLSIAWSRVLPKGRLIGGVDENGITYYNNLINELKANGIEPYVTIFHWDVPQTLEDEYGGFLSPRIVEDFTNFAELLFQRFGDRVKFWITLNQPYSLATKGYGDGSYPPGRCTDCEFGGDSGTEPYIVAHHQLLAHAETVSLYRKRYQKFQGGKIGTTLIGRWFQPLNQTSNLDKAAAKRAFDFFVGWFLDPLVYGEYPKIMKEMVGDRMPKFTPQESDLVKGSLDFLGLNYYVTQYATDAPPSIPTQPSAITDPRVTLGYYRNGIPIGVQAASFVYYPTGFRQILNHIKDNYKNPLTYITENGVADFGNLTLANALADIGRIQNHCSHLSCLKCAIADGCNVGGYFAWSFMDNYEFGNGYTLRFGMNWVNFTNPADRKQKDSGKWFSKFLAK
Description: (§1) In a preferred embodiment, the myrosinases derived from Armoracia rusticana (I1) and Brassica oleacea (A6) have a better stability and catalytic efficiency in various temperatures and pH values when compared with those derived from BMY1 and TGG1 (Table 1). In a preferred illustrative embodiment I1 myrosinase is selected owing to its Km value and improved kcat at the colorectal ambient temperature and pH (FIG. 2c, 2d and Table 1). By comparing the modeled-I1 myrosinase protein structure against that of the BMY1 myrosinase, the critical side chain residues involved in glucose-ring recognition and the glutamic acid that served as a nucleophile during catalysis are conserved. According to the claimed invention the improved catalytic efficiency of the I1 myrosinase is correlated to its pI value (pI=7.90) and the overall positively charged surface (FIG. 8) that contributes to better structural stability.
(§2) Gene cloning, protein expression and purification. Myrosinase genes are optimized for E. coli expression and cloned into the pET28b expression vector. The plasmids are transformed into E. coli BL21 (DE3) cultured in lysogeny broth (LB) (BD, Le Pont de Claix, France) at 37° C., 225 rpm to OD600 0.6 followed by 0.5 mM isopropyl β-D-1-thiogalactopyranoside (IPTG) induction at 16° C., 180 rpm for 16 hours. Cells are harvested, resuspended in lysis buffer (50 mM Tris-Cl, 300 mM NaCl, 10% glycerol, 1 mM dithiothreitol [DTT], pH 8.0) and lysed using Emulsiflex C-3 (Avestin). Expressed myrosinases are purified by IMAC Ni-NTA purification followed by Hi-Load Superdex 200 size exclusion column chromatography (GE, Uppsala, Sweden). The purified protein is concentrated and stored at −80° C. Pilot scale protein purification and enzymatic assay is conducted.
(§3) Myrosinase screening assay. The enzymatic reaction is measured for the release of glucose resulting from sinigrin hydrolysis. The reaction is conducted in sodium phosphate-buffered solution supplied in the Amplex® Red Glucose/Glucose Oxidase Assay Kit (Thermo Fisher Scientific, Geel, Belgium). The reaction buffer is prepared at different pH values (6.0, 6.5, 7.4 and 8.0) and at different reaction temperatures (34° C., 37° C., and 40° C.). The reaction is prepared using 0.1 μM purified myrosinase added to 1× Amplex® Red Glucose Assay reaction mixture and was kick-started with the corresponding concentration of sinigrin. The reaction can be measured at 560 nm absorbance and fluorescence (λex=540 nm, λem=590 nm) using a Synergy H1 Multi-Mode microtiter plate reader (BioTek®, Winooski, USA). The reaction initial velocity (VO) is determined and fitted into a Michaelis-Menten curve. Vmax and KM are determined by fitting into the Michaelis-Menten equation (Eq. 1) using GraphPad Prism Software. ^v=Vmax*[Sinigrin]/(KM+[Sinigrin]) (Eq.1)
(§4) Table S1|Myrosinase activity assay screening under various pH and temperature conditions (n=3 independent experiments, each measurement performed in triplicates; mean[…].).

[2] = test system: Brassica oleacea myrosinase A6; assay: Myrosinase activity assay (glucose release from sinigrin hydrolysis), A6
Description: as §1, §2, §3, §4

[3] = test system: myrosinase C9 (plant-derived myrosinase orthologue); assay: Myrosinase activity assay (glucose release from sinigrin hydrolysis), C9
Experimental: (§5) Screening for improved β-thioglucosidase. The activity and stability of myrosinase, a β-thioglucosidase that hydrolyzes glucosinolate to sulforaphane, varies at differing pH and temperature; in a preferred embodiment the selected enzyme needs to function under physiological colorectal conditions. The healthy colon pH averages 6.6, while it is 7.0 and 6.7 in patients with adenoma and carcinoma, respectively. In addition, the temperature of the human intestinal tract ranges from 36° C. to 40° C. depending on the individual's metabolic state. In the illustrative example five plant-derived myrosinase orthologues with minimal glycosylation sites and the absence of the co-factor-binding sites using the BLAST search and the Enzyme Function Initiative-Enzyme Similarity Tool (EFI-EST), are compared to the well-characterized myrosinases from Brevicoryne brassicae (BMY1) and Arabidopsis thaliana (TGG1) (FIG. 2a and FIG. 7).
as §2, §3, §4

[4] = target: Arabidopsis thaliana myrosinase TGG1 (Arabidopsis thaliana, UniProt P37702); assay: Myrosinase activity assay (glucose release from sinigrin hydrolysis), TGG1
Experimental: as §5, §2, §3, §4

[5] = test system: myrosinase Q5 (plant-derived myrosinase orthologue); assay: Myrosinase activity assay (glucose release from sinigrin hydrolysis), Q5
Experimental: as §5, §2, §3, §4

[6] = target: T2, Brevicoryne brassicae myrosinase BMY1 (Brevicoryne brassicae, UniProt Q95X01); assay: Myrosinase activity assay (glucose release from sinigrin hydrolysis), BMY1
T2 sequence (Q95X01 1-464): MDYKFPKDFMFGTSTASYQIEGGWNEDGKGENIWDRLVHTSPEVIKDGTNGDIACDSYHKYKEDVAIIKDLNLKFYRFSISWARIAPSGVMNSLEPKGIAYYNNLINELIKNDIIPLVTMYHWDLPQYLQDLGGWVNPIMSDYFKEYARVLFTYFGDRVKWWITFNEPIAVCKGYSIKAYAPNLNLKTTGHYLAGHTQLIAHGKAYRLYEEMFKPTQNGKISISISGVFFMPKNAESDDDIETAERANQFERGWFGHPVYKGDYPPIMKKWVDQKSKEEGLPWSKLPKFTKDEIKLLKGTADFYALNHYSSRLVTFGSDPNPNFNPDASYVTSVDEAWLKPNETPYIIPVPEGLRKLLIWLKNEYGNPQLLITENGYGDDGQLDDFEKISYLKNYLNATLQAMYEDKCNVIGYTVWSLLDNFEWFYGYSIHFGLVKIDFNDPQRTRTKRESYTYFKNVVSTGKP
Experimental: as §5, §2, §3, §4

[7] = test system: myrosinase Q9 (plant-derived myrosinase orthologue); assay: Myrosinase activity assay (glucose release from sinigrin hydrolysis), Q9
Experimental: as §5, §2, §3, §4

Sequence of Arabidopsis thaliana myrosinase TGG1 (P37702 20-541): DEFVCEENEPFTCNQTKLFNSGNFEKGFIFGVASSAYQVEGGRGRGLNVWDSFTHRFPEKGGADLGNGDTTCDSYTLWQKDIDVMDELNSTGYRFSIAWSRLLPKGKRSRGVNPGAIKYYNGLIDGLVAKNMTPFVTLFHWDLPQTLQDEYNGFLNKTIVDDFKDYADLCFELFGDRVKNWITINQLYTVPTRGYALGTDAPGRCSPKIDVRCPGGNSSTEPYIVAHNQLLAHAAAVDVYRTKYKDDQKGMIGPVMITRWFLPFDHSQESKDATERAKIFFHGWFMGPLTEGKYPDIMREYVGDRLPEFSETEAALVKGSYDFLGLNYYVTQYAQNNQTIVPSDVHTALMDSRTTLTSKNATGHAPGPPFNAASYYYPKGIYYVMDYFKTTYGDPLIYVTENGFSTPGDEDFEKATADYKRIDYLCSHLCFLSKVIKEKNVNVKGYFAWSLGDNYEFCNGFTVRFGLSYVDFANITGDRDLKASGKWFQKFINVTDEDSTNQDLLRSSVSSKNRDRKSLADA

## C=CC/C(=N/OS(=O)(=O)O)S[C@@H]1O[C@H](CO)[C@@H](O)[C@H](O)[C@H]1O [sinigrin]
[1]; pH 6.0, 37° C.
  kcar: 6.6 ± 0.7 s⁻¹
[1]; pH 6.5, 37° C.
  kcar: 7.9 ± 1.1 s⁻¹
[1]; pH 7.4, 34° C.
  kcar: 3.4 ± 0.7 s⁻¹
[1]; pH 7.4, 37° C.
  kcar: 15.0 ± 1.5 s⁻¹
[1]; pH 7.4, 40° C.
  kcar: 15.2 ± 1.5 s⁻¹
[1]; pH 8.0, 37° C.
  kcar: 6.6 ± 3.1 s⁻¹
[2]; pH 6.0, 37° C.
  Km: 68 ± 2 µM
  kcar: 6.6 ± 1.3 s⁻¹
[2]; pH 6.5, 37° C.
  Km: 187 ± 13 µM
  kcar: 15.0 ± 1.5 s⁻¹
[2]; pH 7.4, 34° C.
  Km: 47 ± 5 µM
  kcar: 7.2 ± 1.3 s⁻¹
[2]; pH 7.4, 37° C.
  Km: 44 ± 4 µM
  kcar: 5.2 ± 0.9 s⁻¹
[2]; pH 7.4, 40° C.
  Km: 189 ± 39 µM
  kcar: 9.7 ± 1.3 s⁻¹
[2]; pH 8.0, 37° C.
  Km: 142 ± 22 µM
  kcar: 9.3 ± 1.2 s⁻¹
[3]; pH 6.0, 37° C.
  Km: 439 ± 97 µM
  kcar: 5.6 ± 0.8 s⁻¹
[3]; pH 6.5, 37° C.
  Km: 290 ± 31 µM
  kcar: 9.0 ± 0.9 s⁻¹
[3]; pH 7.4, 34° C.
  Km: 384 ± 28 µM
  kcar: 11.2 ± 2.4 s⁻¹
[3]; pH 7.4, 37° C.
  Km: 38 ± 2 µM
  kcar: 3.4 ± 0.6 s⁻¹
[3]; pH 7.4, 40° C.
  Km: 352 ± 68 µM
  kcar: 9.0 ± 0.9 s⁻¹
[3]; pH 8.0, 37° C.
  Km: 842 ± 80 µM
  kcar: 10.7 ± 1.3 s⁻¹
[4]; pH 6.0, 37° C.
  kcar: 10.2 ± 0.6 s⁻¹
[4]; pH 6.5, 37° C.
  kcar: 8.6 ± 1.6 s⁻¹
[4]; pH 7.4, 34° C.
  kcar: 6.9 ± 1.6 s⁻¹
[4]; pH 7.4, 37° C.
  kcar: 6.4 ± 1.1 s⁻¹
[4]; pH 7.4, 40° C.
  kcar: 6.5 ± 0.2 s⁻¹
[4]; pH 8.0, 37° C.
  kcar: 4.3 ± 0.7 s⁻¹
[5]; pH 6.0, 37° C.
  Km: 184 ± 15 µM
  kcar: 4.6 ± 1.1 s⁻¹
[5]; pH 6.5, 37° C.
  Km: 127 ± 21 µM
  kcar: 4.9 ± 1.2 s⁻¹
[5]; pH 7.4, 34° C.
  Km: 225 ± 13 µM
  kcar: 2.9 ± 1.4 s⁻¹
[5]; pH 7.4, 37° C.
  Km: 25 ± 7 µM
  kcar: 2.1 ± 1.6 s⁻¹
[5]; pH 7.4, 40° C.
  Km: 49 ± 14 µM
  kcar: 3.7 ± 1.6 s⁻¹
[5]; pH 8.0, 37° C.
  Km: 154 ± 24 µM
  kcar: 2.8 ± 1.1 s⁻¹
[6]; pH 6.0, 37° C.
  kcar: 5.7 ± 0.8 s⁻¹
[6]; pH 6.5, 37° C.
  kcar: 11.8 ± 0.4 s⁻¹
[6]; pH 7.4, 34° C.
  kcar: 6.9 ± 0.4 s⁻¹
[6]; pH 7.4, 37° C.
  kcar: 6.0 ± 0.7 s⁻¹
[6]; pH 7.4, 40° C.
  kcar: 9.1 ± 0.8 s⁻¹
[6]; pH 8.0, 37° C.
  kcar: 5.6 ± 0.6 s⁻¹
[7]; pH 6.0, 37° C.
  Km: 111 ± 3 µM
  kcar: 3.0 ± 0.6 s⁻¹
[7]; pH 6.5, 37° C.
  Km: 291 ± 5 µM
  kcar: 7.8 ± 0.8 s⁻¹
[7]; pH 7.4, 34° C.
  kcar: 13.0 ± 3.5 s⁻¹
[7]; pH 7.4, 37° C.
  kcar: 3.8 ± 1.5 s⁻¹
[7]; pH 7.4, 40° C.
  Km: 893 ± 23 µM
  kcar: 12.3 ± 3.9 s⁻¹
[7]; pH 8.0, 37° C.
  Km: 473 ± 6 µM
  kcar: 4.4 ± 1.0 s⁻¹

Source: patent US11925667B2, “Engineered therapeutic probiotic system and method” (priority 2018, dated 2024)
